Laboratory results from US10583140B2, “Ingenol analogs, pharmaceutical compositions and methods of use thereof” (GlaxoSmithKline Intellectual Property Development Limited, priority 2016, dated 2020).

Test system: HIV-infected Jurkat cell clones (C16, I15 and N6)
Assay: Jurkat HIV Latency assay (HIV activation, luciferase)
Assay type: cell-based
Conditions: Homo sapiens, HIV activation by HIV expressed luciferase (Steady-Glo), cells incubated with compound 24 hours at 37° C.
Procedure: For the Jurkat HIV Latency assay, compounds are dissolved and titrated in DMSO and diluted 100-fold in assay medium (RPMI-1640 containing 10% fetal bovine serum) containing an equal mixture of three HIV-infected Jurkat cell clones (C16, I15 and N6) at a total concentration of 1-2×10e^5 cells/mL. To test stability, compounds are pre-incubated in an assay medium for 48 hours at 37° C. prior to adding cells (48 hr EC50). Compounds that induce HIV expression result in a dose-dependent production of the HIV expressed luciferase enzyme. After the incubation of cells with compound for 24 hours at 37° C., HIV activation and cytotoxicity are determined by measuring luminescence after the addition of Promega Steady-Glo® Luciferase Assay reagent or CellTiter-Glo® Luminescent Cell Viability Assay reagent, respectively.

| SMILES | EC50 [nM] |
| --- | --- |
| CC1=C[C@]23C(=O)[C@@H](C=C(COC(=O)N(C)c4ccc(Cl)cc4)[C@@H](O)[C@]2(O)[C@H]1O)[C@H]1[C@@H](C[C@H]3C)C1(C)C [Example 5, ((1aR,2S,5R,5aR,6S,8aS,9R,10aR)-5,5a,6-trihydroxy-1,1,7,9-tetramethyl-11-oxo-1a,2,5,5a,6,9,10,10a-octahydro-1H-2,8a-methanocyclopenta[a]cyclopropa[e][10]annulen-4-yl)methyl (4-chlorophenyl)(methyl)carbamate] | 616 |
| CC1=C[C@]23C(=O)[C@@H](C=C(COC(=O)N4CCc5ccccc54)[C@@H](O)[C@]2(O)[C@H]1OC(=O)N1CCc2ccccc21)[C@H]1[C@@H](C[C@H]3C)C1(C)C [Example 11, (1aR,2S,5R,5aS,6S,8aS,9R,10aR)-5,5a-dihydroxy-4-(((indoline-1-carbonyl)oxy)methyl)-1,1,7,9-tetramethyl-11-oxo-1a,2,5,5a,6,9,10,10a-octahydro-1H-2,8a-methanocyclopenta[a]cyclopropa[e][10]annulen-6-yl indoline-1-carboxylate] | 3500 |
| CC1=C[C@]23C(=O)[C@@H](C=C(CO)[C@@H](O)[C@]2(O)C1=O)[C@H]1[C@@H](C[C@H]3C)C1(C)C [Example 4, (1aR,2S,5R,5aS,8aS,9R,10aR)-5,5a-dihydroxy-4-(hydroxymethyl)-1,1,7,9-tetramethyl-1a,2,5,5a,10,10a-hexahydro-1H-2,8a-methanocyclopenta[a]cyclopropa[e][10]annulene-6,11 (9H)-dione] | 4940 |
| CC(=O)OCC1=C[C@@H]2C(=O)[C@]3(C=C(C)[C@H](OC(=O)N(C)c4ccc(Cl)cc4)[C@@]3(O)[C@@H]1O)[C@H](C)C[C@@H]1[C@H]2C1(C)C [Example 1, ((1aR,2S,5R,5aS,6S,8aS,9R,10aR)-6-(((4-chlorophenyl) (methyl)carbamoyl)oxy)-5,5a-dihydroxy-1,1,7,9-tetramethyl-11-oxo-1a,2,5,5a,6,9,10,10a-octahydro-1H-2,8a-methanocyclopenta[a]cyclopropa[e][10]annulen-4-yl)methyl acetate] | 7 |
| CC1=C[C@]23C(=O)[C@@H](C=C(COC(=O)NCc4ccccc4)[C@@H](O)[C@]2(O)[C@H]1O)[C@H]1[C@@H](C[C@H]3C)C1(C)C [Example 8, ((1aR,2S,5R,5aR,6S,8aS,9R,10aR)-5,5a,6-trihydroxy-1,1,7,9-tetramethyl-11-oxo-1a,2,5,5a,6,9,10,10a-octahydro-1H-2,8a-methanocyclopenta[a]cyclopropa[e][10]annulen-4-yl)methyl benzylcarbamate] | 4330 |
| CC1=C[C@]23C(=O)[C@@H](C=C(COC(=O)N(C)C4CCCCC4)[C@@H](O)[C@]2(O)[C@H]1O)[C@H]1[C@@H](C[C@H]3C)C1(C)C [Example 9, ((1aR,2S,5R,5aR,6S,8aS,9R,10aR)-5,5a,6-trihydroxy-1,1,7,9-tetramethyl-11-oxo-1a,2,5,5a,6,9,10,10a-octahydro-1H-2,8a-methanocyclopenta[a]cyclopropa[e][10]annulen-4-yl)methyl cyclohexyl(methyl)carbamate] | 50000 |
| CC1=C[C@]23C(=O)[C@@H](C=C(COc4ncc(C(F)(F)F)cn4)[C@@H](O)[C@]2(O)[C@H]1O)[C@H]1[C@@H](C[C@H]3C)C1(C)C [Example 12, (1aR,2S,5R,5aR,6S,8aS,9R,10aR)-5,5a,6-trihydroxy-1,1,7,9-tetramethyl-4-(((5-(trifluoromethyl)pyrimidin-2-yl)oxy)methyl)-1a,2,5,5a,6,9,10,10a-octahydro-1H-2,8a-methanocyclopenta[a]cyclopropa[e][10]annulen-11-one] | 5170 |
| CCCCNC(=O)OCC1=C[C@@H]2C(=O)[C@]3(C=C(C)[C@H](O)[C@@]3(O)[C@@H]1O)[C@H](C)C[C@@H]1[C@H]2C1(C)C [Example 7, ((1aR,2S,5R,5aR,6S,8aS,9R,10aR)-5,5a,6-trihydroxy-1,1,7,9-tetramethyl-11-oxo-1a,2,5,5a,6,9,10,10a-octahydro-1H-2,8a-methanocyclopenta[a]cyclopropa[e][10]annulen-4-yl)methyl butylcarbamate] | 1050 |
| CC1=C[C@]23C(=O)[C@@H](C=C(CN4C(=O)c5ccccc5C4=O)[C@@H](O)[C@]2(O)[C@H]1OC(=O)N(C)c1ccc(Cl)cc1)[C@H]1[C@@H](C[C@H]3C)C1(C)C [Example 3, (1aR,2S,5R,5aS,6S,8aS,9R,10aR)-4-((1,3-dioxoisoindolin-2-yl)methyl)-5,5a-dihydroxy-1,1,7,9-tetramethyl-11-oxo-1a,2,5,5a,6,9,10,10a-octahydro-1H-2,8a-methanocyclopenta[a]cyclopropa[e][10]annulen-6-yl (4-chlorophenyl) (methyl)carbamate] | 1110 |
| CC1=C[C@]23C(=O)[C@@H](C=C(COC(=O)c4ccccc4)[C@@H](O)[C@]2(O)[C@H]1OC(=O)N(C)c1ccc(Cl)cc1)[C@H]1[C@@H](C[C@H]3C)C1(C)C [Example 2, ((1aR,2S,5R,5aS,6S,8aS,9R,10aR)-6-(((4-chlorophenyl) (methyl)carbamoyl)oxy)-5,5a-dihydroxy-1,1,7,9-tetramethyl-11-oxo-1a,2,5,5a,6,9,10,10a-octahydro-1H-2,8a-methanocyclopenta [a]cyclopropa[e][10]annulen-4-yl)methyl benzoate] | 22 |
| CC1=C[C@]23C(=O)[C@@H](C=C(COC(=O)Nc4ccccc4)[C@@H](O)[C@]2(O)[C@H]1O)[C@H]1[C@@H](C[C@H]3C)C1(C)C [Example 6, ((1aR,2S,5R,5aR,6S,8aS,9R,10aR)-5,5a,6-trihydroxy-1,1,7,9-tetramethyl-11-oxo-1a,2,5,5a,6,9,10,10a-octahydro-1H-2,8a-methanocyclopenta[a]cyclopropa[e][10]annulen-4-yl)methyl phenylcarbamate] | 3680 |
| CC1=C[C@]23C(=O)[C@@H](C=C(COC(=O)N4CCc5ccccc54)[C@@H](O)[C@]2(O)[C@H]1O)[C@H]1[C@@H](C[C@H]3C)C1(C)C [Example 10, ((1aR,2S,5R,5aR,6S,8aS,9R,10aR)-5,5a,6-trihydroxy-1,1,7,9-tetramethyl-11-oxo-1a,2,5,5a,6,9,10,10a-octahydro-1H-2,8a-methanocyclopenta[a]cyclopropa[e][10]annulen-4-yl)methyl indoline-1-carboxylate] | 278 |
